Experimental data published in PubChem BioAssay AID220 (DTP/NCI, 2004).
Results filed as inconclusive are left out.

Test system: CD8F1 mice, subcutaneous mammary adenocarcinoma, T/C%
Assay: NCI In Vivo Anticancer Drug Screen. Data for tumor model Mammary Adenocarcinoma CD8F1 (subcutaneous) in CD8F1
Conditions: higher = larger tumour
Method in brief: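 Antitumor activity is assessed in transplantable-tumor mice by comparing the treated group with a vehicle-treated control group. Survival or tumor size serves as the measure, reported as T divided by C.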

[1] = endpoint: median tumor weight (est.), dose: 12.5 mg/kg/injection, schedule: Q07DX005 (ip), vehicle: saline with Tween-80
[2] = endpoint: median tumor weight (est.), dose: 50.0 mg/kg/injection, schedule: Q07DX005 (ip), vehicle: saline with Tween-80
[3] = endpoint: median tumor weight (est.), dose: 25.0 mg/kg/injection, schedule: Q07DX005 (ip), vehicle: saline
[4] = endpoint: median tumor weight (est.), dose: 50.0 mg/kg/injection, schedule: Q07DX005 (ip), vehicle: saline

CSc1ccc2c(c1)C(N1CCN(C)CC1)Cc1ccccc1S2 (configuration not stated)
T/C (endpoint: median tumor weight (est.), dose: 3.12 mg/kg/injection, schedule: Q07DX005 (ip), vehicle: saline with Tween-80): 104 % of control
T/C (endpoint: median tumor weight (est.), dose: 6.25 mg/kg/injection, schedule: Q07DX005 (ip), vehicle: saline with Tween-80): 95 % of control
T/C [1]: 63 % of control
T/C (endpoint: median tumor weight (est.), dose: 25.0 mg/kg/injection, schedule: Q07DX005 (ip), vehicle: saline with Tween-80): 53 % of control
T/C [2]: 104 % of control

O=C(O)C1(C(=O)O)CCC1.[NH2-].[NH2-].[Pt+2]
T/C (endpoint: median tumor weight change, dose: 6.25 mg/kg/injection, schedule: Q01DX001 (ip), vehicle: dextrose): 98 % of control
T/C (endpoint: median tumor weight change, dose: 12.5 mg/kg/injection, schedule: Q01DX001 (ip), vehicle: dextrose): 80 % of control
T/C (endpoint: median tumor weight change, dose: 25.0 mg/kg/injection, schedule: Q01DX001 (ip), vehicle: dextrose): 52 % of control

[N-]=[N+]=CC(=O)CCC(=O)C=[N+]=[N-]
T/C (endpoint: median tumor weight (est.), dose: 6.25 mg/kg/injection, schedule: Q07DX005 (ip), vehicle: DMSO): 65 % of control
T/C (endpoint: median tumor weight (est.), dose: 12.5 mg/kg/injection, schedule: Q07DX005 (ip), vehicle: DMSO): 73 % of control
T/C (endpoint: median tumor weight (est.), dose: 25.0 mg/kg/injection, schedule: Q07DX005 (ip), vehicle: DMSO): 78 % of control
T/C (endpoint: median tumor weight (est.), dose: 50.0 mg/kg/injection, schedule: Q07DX005 (ip), vehicle: DMSO): 38 % of control
T/C (endpoint: median tumor weight (est.), dose: 100.0 mg/kg/injection, schedule: Q07DX005 (ip), vehicle: DMSO): 47 % of control

C=Cc1cnc([N+](=O)[O-])n1C
T/C (endpoint: median tumor weight (est.), dose: 12.5 mg/kg/injection, schedule: Q07DX005 (ip), vehicle: Klucel (hydroxypropylcellulose) (HPC)): 122 % of control
T/C (endpoint: median tumor weight (est.), dose: 25.0 mg/kg/injection, schedule: Q07DX005 (ip), vehicle: Klucel (hydroxypropylcellulose) (HPC)): 92 % of control
T/C (endpoint: median tumor weight (est.), dose: 100.0 mg/kg/injection, schedule: Q07DX005 (ip), vehicle: Klucel (hydroxypropylcellulose) (HPC)): 42 % of control
T/C (endpoint: median tumor weight (est.), dose: 200.0 mg/kg/injection, schedule: Q07DX005 (ip), vehicle: Klucel (hydroxypropylcellulose) (HPC)): 30 % of control

NC(=S)N/N=C/c1ccc(O)cn1
T/C (endpoint: mean tumor weight, dose: 12.5 mg/kg/injection, schedule: Q07DX005 (ip), vehicle: saline with Tween-80): 101 % of control
T/C (endpoint: mean tumor weight, dose: 25.0 mg/kg/injection, schedule: Q07DX005 (ip), vehicle: saline with Tween-80): 75 % of control
T/C (endpoint: mean tumor weight, dose: 50.0 mg/kg/injection, schedule: Q07DX005 (ip), vehicle: saline with Tween-80): 58 % of control
T/C (endpoint: mean tumor weight, dose: 100.0 mg/kg/injection, schedule: Q07DX005 (ip), vehicle: saline with Tween-80): 49 % of control
T/C (endpoint: mean tumor weight, dose: 200.0 mg/kg/injection, schedule: Q07DX005 (ip), vehicle: saline with Tween-80): 63 % of control
T/C [1]: 106 % of control
T/C [3]: 59 % of control
T/C [2]: 85 % of control
T/C [4]: 76 % of control
T/C (endpoint: median tumor weight (est.), dose: 100.0 mg/kg/injection, schedule: Q07DX005 (ip), vehicle: saline with Tween-80): 124 % of control
T/C (endpoint: median tumor weight (est.), dose: 100.0 mg/kg/injection, schedule: Q07DX005 (ip), vehicle: saline): 105 % of control
T/C (endpoint: median tumor weight (est.), dose: 200.0 mg/kg/injection, schedule: Q07DX005 (ip), vehicle: saline with Tween-80): 60 % of control
T/C (endpoint: median tumor weight (est.), dose: 200.0 mg/kg/injection, schedule: Q07DX005 (ip), vehicle: saline): 64 % of control
T/C (endpoint: median tumor weight (est.), dose: 400.0 mg/kg/injection, schedule: Q07DX005 (ip), vehicle: saline with Tween-80): 52 % of control
T/C (endpoint: median tumor weight (est.), dose: 400.0 mg/kg/injection, schedule: Q07DX005 (ip), vehicle: saline): 44 % of control
T/C (endpoint: median tumor weight (est.), dose: 800.0 mg/kg/injection, schedule: Q07DX005 (ip), vehicle: saline): 2 % of control

Nc1ncnc2c1ncn2C1OC(CO)CC1O (configuration not stated)
T/C (endpoint: median tumor weight (est.), dose: 37.5 mg/kg/injection, schedule: Q07DX005 (ip), vehicle: Klucel (hydroxypropylcellulose) (HPC)): 102 % of control
T/C (endpoint: median tumor weight (est.), dose: 75.0 mg/kg/injection, schedule: Q07DX005 (ip), vehicle: Klucel (hydroxypropylcellulose) (HPC)): 88 % of control

O=c1[nH]cc(F)c(=O)[nH]1
T/C (endpoint: mean tumor weight (est.), dose: 50.0 mg/kg/injection, schedule: Q07DX004 (ip), vehicle: saline): 28 % of control
T/C (endpoint: mean tumor weight (est.), dose: 50.0 mg/kg/injection, schedule: Q07DX004 (iv), vehicle: saline): 25 % of control
T/C (endpoint: mean tumor weight (est.), dose: 100.0 mg/kg/injection, schedule: Q07DX003 (ip), vehicle: saline): 15 % of control
T/C (endpoint: mean tumor weight (est.), dose: 100.0 mg/kg/injection, schedule: Q07DX004 (ip), vehicle: saline): 2 % of control
T/C (endpoint: mean tumor weight (est.), dose: 100.0 mg/kg/injection, schedule: Q07DX004 (iv), vehicle: saline): 3 % of control
T/C (endpoint: mean tumor weight (est.), dose: 115.0 mg/kg/injection, schedule: Q07DX003 (ip), vehicle: saline): 14 % of control
T/C (endpoint: mean tumor weight (est.), dose: 130.0 mg/kg/injection, schedule: Q07DX003 (ip), vehicle: saline): 5 % of control
T/C (endpoint: mean tumor weight, dose: 5.0 mg/kg/injection, schedule: Q01DX009 (ip), vehicle: saline): 159 % of control
T/C (endpoint: mean tumor weight, dose: 10.0 mg/kg/injection, schedule: Q01DX009 (ip), vehicle: saline): 199 % of control
T/C (endpoint: mean tumor weight, dose: 20.0 mg/kg/injection, schedule: Q01DX009 (ip), vehicle: saline): 4 % of control
T/C (endpoint: mean tumor weight, dose: 25.0 mg/kg/injection, schedule: Q07DX006 (ip), vehicle: saline): 105 % of control
T/C (endpoint: mean tumor weight, dose: 25.0 mg/kg/injection, schedule: Q07DX007 (ip), vehicle: saline): 92 % of control
T/C (endpoint: mean tumor weight, dose: 50.0 mg/kg/injection, schedule: Q07DX006 (ip), vehicle: saline): 10 % of control
T/C (endpoint: mean tumor weight, dose: 50.0 mg/kg/injection, schedule: Q07DX007 (ip), vehicle: saline): 11 % of control
T/C (endpoint: median tumor weight (est.), dose: 5.0 mg/kg/injection, schedule: Q01DX005 (ip), vehicle: saline): 176 % of control
T/C (endpoint: median tumor weight (est.), dose: 10.0 mg/kg/injection, schedule: Q01DX005 (ip), vehicle: saline): 20 % of control
T/C (endpoint: median tumor weight (est.), dose: 15.0 mg/kg/injection, schedule: Q04DX005 (ip), vehicle: saline): 17 % of control
T/C (endpoint: median tumor weight (est.), dose: 15.0 mg/kg/injection, schedule: Q07DX005 (ip), vehicle: saline): 4 % of control
T/C (endpoint: median tumor weight (est.), dose: 20.0 mg/kg/injection, schedule: Q01DX005 (ip), vehicle: saline): 49 % of control
T/C (endpoint: median tumor weight (est.), dose: 25.0 mg/kg/injection, schedule: Q01DX005 (ip), vehicle: saline): 39 % of control
T/C (endpoint: median tumor weight (est.), dose: 25.0 mg/kg/injection, schedule: Q04DX005 (ip), vehicle: saline): 30 % of control
T/C [3]: 19 % of control
T/C (endpoint: median tumor weight (est.), dose: 27.0 mg/kg/injection, schedule: Q07DX005 (ip), vehicle: saline): 86 % of control
T/C (endpoint: median tumor weight (est.), dose: 30.0 mg/kg/injection, schedule: Q04DX005 (ip), vehicle: saline): 24 % of control
T/C (endpoint: median tumor weight (est.), dose: 30.0 mg/kg/injection, schedule: Q07DX005 (ip), vehicle: saline): 5 % of control
T/C (endpoint: median tumor weight (est.), dose: 37.5 mg/kg/injection, schedule: Q01DX005 (ip), vehicle: saline): 14 % of control
T/C (endpoint: median tumor weight (est.), dose: 37.5 mg/kg/injection, schedule: Q04DX005 (ip), vehicle: saline): 24 % of control
T/C (endpoint: median tumor weight (est.), dose: 37.5 mg/kg/injection, schedule: Q07DX005 (ip), vehicle: saline): 27 % of control
T/C (endpoint: median tumor weight (est.), dose: 40.0 mg/kg/injection, schedule: Q07DX005 (ip), vehicle: saline): 48 % of control
T/C (endpoint: median tumor weight (est.), dose: 50.0 mg/kg/injection, schedule: Q04DX005 (ip), vehicle: saline): 9 % of control
T/C [4]: 2 % of control
T/C (endpoint: median tumor weight (est.), dose: 60.0 mg/kg/injection, schedule: Q07DX005 (ip), vehicle: saline): 18 % of control
T/C (endpoint: median tumor weight (est.), dose: 89.0 mg/kg/injection, schedule: Q01DX001 (ip), vehicle: saline): 30 % of control
T/C (endpoint: median tumor weight (est.), dose: 90.0 mg/kg/injection, schedule: Q07DX005 (ip), vehicle: saline): 9 % of control
T/C (endpoint: median tumor weight (est.), dose: 133.0 mg/kg/injection, schedule: Q01DX001 (ip), vehicle: saline): 22 % of control
T/C (endpoint: median tumor weight (est.), dose: 200.0 mg/kg/injection, schedule: Q01DX001 (ip), vehicle: saline): 21 % of control
T/C (endpoint: median tumor weight (est.), dose: 270.0 mg/kg/injection, schedule: Q01DX001 (ip), vehicle: saline): 17 % of control
T/C (endpoint: median tumor weight change, dose: 25.0 mg/kg/injection, schedule: Q01DX001 (ip), vehicle: saline): 103 % of control
T/C (endpoint: median tumor weight change, dose: 50.0 mg/kg/injection, schedule: Q01DX001 (ip), vehicle: saline): 61 % of control
T/C (endpoint: median tumor weight change, dose: 100.0 mg/kg/injection, schedule: Q01DX001 (ip), vehicle: saline): 33 % of control

Cc1cccc(-[n+]2noc(N)n2)c1
T/C (endpoint: median tumor weight change, dose: 62.0 mg/kg/injection, schedule: Q01DX001 (ip), vehicle: water): 80 % of control
T/C (endpoint: median tumor weight change, dose: 125.0 mg/kg/injection, schedule: Q01DX001 (ip), vehicle: water): 51 % of control
